Laboratory results from patent publication US20050197292A1, “Compositions and methods for treating T-cell mediated pathological conditions” (priority 2004, published 2005).

What was measured:
CD8 T cells = experiment: TCR-CD28 co-stimulated proliferation, [3H] thymidine incorporation, CD8 T cells; type: cell-based, human; settings: anti-CD3 150 ng/ml and anti-CD28 1 μg/ml coated, 72 h
Description: (§1) 96-well plates were coated with the anti-CD3 and anti-CD28 mAb at 150 ng/ml and 1 μg/ml respectively in PBS overnight at 4° C., aspirated and coated with the control protein, CG57008-15, CG57008-12 or CG57008-14 for 4 hr at 37° C. Wells were aspirated and 150 μl of purified Human CD4+, CD8+ or polarized TH2 cells from healthy blood donors, or purified CD4+ or CD8+ T cells from B6 mice at a concentration of 0.7×10^6 cells/ml were added and cultured for 72 h at 37° C. Proliferation was measured by [^3H] thymidine incorporation by pulsing cells with 0.5 μCi of [^3H] thymidine 8 hr prior to harvesting. Cytokines were measured by ELISA using cells harvested at 72 hr.

CD4 T cells = experiment: TCR-CD28 co-stimulated proliferation, [3H] thymidine incorporation, CD4 T cells; type: cell-based, human; settings: anti-CD3 150 ng/ml and anti-CD28 1 μg/ml coated, 72 h
Description: as §1

## CG201877-02 (ECD/FC): Tim1 - Mus musculus; Mature Igkappa, ECD, Fc, V5, His
CD8 T cells
  proliferation of CD8 T cells: significantly inhibited
CD4 T cells
  proliferation of CD4 T cells: significantly inhibited
